Assay results taken from patent US9883691B2, “Food and beverage products containing 1,3-propanediol and methods of modifying flavor release using 1,3-propanediol” (Kraft Foods Group Brands LLC, priority 2012, dated 2018).

Key:
Format in all cases: physicochemical
[1] = PTR-MS headspace release at various flavor compound to 1,3-propanediol or PG ratios (Example 2); settings: for release suppressed in the presence of 1,3-propanediol: 10% cut-off for significant difference, relative to PG; for Percent Suppression by 1,3-propanediol: (IZ−IPG)/IPG×100
Protocol: The compounds listed below in Table 3 were added together to provide a liquid flavoring to analyze the role, if any, of the amount of 1,3-propanediol on flavor release. […] The amount of each flavor compound in the beverage was held constant at 8 ppm except furfuryl mercaptan was included at 1.6 ppm while the amount of propylene glycol or 1,3-propanediol varied.
The percent suppression was calculated using the following formula: (IZ−IPG)/IPG×100, where I is peak height, “Z” is 1,3-propanediol and “PG” is propylene glycol.

[2] = PTR-MS headspace release with various non-aqueous liquids (diols) at 0.05:100 (Example 3); settings: ratio 0.05:100; for PTR-MS headspace release in 1,3-butanediol: non-aqueous liquid 1,3-butanediol; for PTR-MS headspace release in 1,3-butanediol / PTR-MS headspace release in 1,3-propanediol / PTR-MS headspace release in 1,4-butanediol / PTR-MS headspace release in 1,7-heptanediol / PTR-MS headspace release in Propylene glycol: diluted in water; for PTR-MS headspace release in 1,3-propanediol: non-aqueous liquid 1,3-propanediol; for PTR-MS headspace release in 1,4-butanediol: non-aqueous liquid 1,4-butanediol; for PTR-MS headspace release in 1,7-heptanediol: non-aqueous liquid 1,7-heptanediol; for PTR-MS headspace release in Propylene glycol: non-aqueous liquid propylene glycol
Protocol: […]. The flavoring was then diluted in water for analysis. The final concentration of each compound was held constant at 8 ppm except furfuryl mercaptan was included at 1.6 ppm to maintain a constant flavor level in the resulting beverage while the non-aqueous liquid varied but the ratio of each compound to non-aqueous liquid was held constant at 0.05:100. A variety of non-aqueous liquids were evaluated, including 1,4-butandiol; 1,7-heptandiol; 1,3-butandiol, propylene glycol, and 1,3-propanediol.
Samples were analyzed by PTR-MS as described in Example 1.
Percent suppression was calculated by the following formula: (I1-3-diol−Ialternate diol)/Ialternate diol×100.

[3] = PTR-MS headspace release from stored beverages, water/solvent experiment (Example 4); settings: beverage stored refrigerated; 1.5, 24, 48 and 72 hours; Tukey-Kramer
Protocol: 0.86 grams of the flavor concentrate was then added to 100 grams of either propylene glycol or 1,3-propanediol to provide diluted concentrates. […].
The beverages were then stored in sealed containers in a refrigerator. The container was opened five times over the course of the experiment and therefore represented a beverage in a sealed container being opened for multiple uses. 15 gram samples were weighed into a 4 ounce cup and analyzed at 1.5 hours, 24 hours, 48 hours, and 72 hours after storage.
The samples were analyzed in triplicate by PTR-MS as described below to determine impact of 1,3-propanediol or propylene glycol on release of the flavors from the beverage. The PTR-MS was performed as follows. A sampling apparatus was needed in conjunction with the PTR-MS inlet to prevent variations caused by headspace kinetics. The sampling apparatus used includes a 4 ounce sample vessel equipped with a 2-hole lid which may be sealed by an adhesive film to allow equilibration. […]. The holes were equal sized (˜2 mm diameter) and match the outer diameter of the PTR-MS inlet line. The flow of the dilution gas into the vessel was regulated by the vacuum and proportional valve of the PTR-MS inlet system. […] The 2 holes in the lid were equidistant from the edge of the vessel (˜20 mm) and ˜30 mm from each other. The PTR-MS inlet was braced by clamps in a fixed position vertically above the laboratory bench (˜55 mm) and a silicone rubber depth gauge was affixed to the PTR-MS inlet tubing and set at 18 mm. The PTR-MS inlet was consistently oriented in a vertical position […] below the inside lid of the vessel and 19 mm above the sample in the vessel. The sample vessel was then held in place during sampling according to the depth gauge on the inlet line and the vessel was subsequently supported on the bench by a 10 mm plastic spacer.
15 grams of the sample to be tested (e.g., food or beverage product containing 1,3-propanediol) are added to the vessel and the vessel is sealed and allowed to equilibrate at room temperature (˜22° C.) for 90 minutes. At the time of sampling, the seal was removed from both the sampling hole and the dilution gas hole in the lid and the vessel was immediately affixed to the PTR-MS inlet via the sampling hole. The real-time released flavor was measured from the headspace of the sample vessel for two minutes (according to the conditions listed in Table 1 above).
The data was analyzed using PTR-MS Viewer, Version 3.0.0.101 (Ionicon Analytik G.m.b.H). The point of maximum intensity for each compound of interest was determined and recorded according to the PTR-MS Viewer software. The maximum intensity in counts over the timescale for each compound of interest was used for data analysis as it reflected the static equilibrium headspace concentration in the system at the moment of seal removal. Due to the necessity of a dilution gas, the volatile concentration decreased over time as the compounds of interest re-equilibrated to a state of dynamic equilibrium in the headspace.
The statistical differences were determined by Tukey-Kramer Honest […]. […].

[4] = PTR-MS headspace release in neat solvent, solvent/solvent experiment (Example 5); set-up: key to Release Differences: “Z” indicates that 1,3-propanediol had higher equilibrium maximum (meaning more of the flavor was released in 1,3-propanediol); “P” indicates that propylene glycol had higher equilibrium maximum; “-” indicates no statistical difference (95% significance) between the two samples; settings: 1,3-propanediol versus propylene glycol as sole solvent; 1.5 hrs equilibration; 95% significance
Protocol: […]. Then the head space was analyzed as described above.
0.86 grams of the concentrate was added to 100 grams of either propylene glycol or 1,3-propanediol to provide a 1,3-propanediol diluted concentrate or propylene glycol diluted concentrate. The diluted concentrates were then further diluted as outlined in Table 10 below.
A 15 gram sample was weighed into a 4 oz vessel and analyzed at 1.5 hrs. of equilibration time as described in the method of Example 4.

[5] = flavor/1,3-propanediol ratio of 0.05:100
[6] = ratio 0.005:100, negative = suppressed vs PG

Row | Compound | release suppressed in the presence of 1,3-propanediol [1] | effect of 1,3-propanediol on release [1, 5] | Percent Suppression by 1,3-propanediol [1, 6] | Percent Suppression by 1,3-propanediol ([1]; ratio 0.05:100) | Percent Suppression by 1,3-propanediol ([1]; ratio 5:100) | Percent Suppression by 1,3-propanediol ([1]; ratio 15:100) | PTR-MS headspace release in 1,3-butanediol [2] | PTR-MS headspace release in 1,3-propanediol [2] | PTR-MS headspace release in 1,4-butanediol [2] | PTR-MS headspace release in 1,7-heptanediol [2] | PTR-MS headspace release in Propylene glycol [2] | Percent suppression by 1,3-butanediol relative to 1,4-butanediol [2] | effect of 1,3-propanediol on flavor release relative to propylene glycol, water/solvent [3] | Release Differences [4] | effect of 1,3-propanediol on release ([1]; flavor to 1,3-propanediol ratio of about 0.005:100 to 15:100) | effect of 1,3-propanediol on release ([1]; ratio 0.005:100)
1 | Cc1nc(C)c(C)nc1C [Tetramethyl pyrazine] | suppressed | significant suppression effect | 10.2% | −44.6% | −17.8% | −5.6% | 12.3 | 9.89 | 20.5 | 22.0 | 17.85 | −67.3% | little effect | Z |  | 
2 | SCc1ccco1 [Furfuryl mercaptan] |  |  | 31.8% | 7.8% | 15.9% | −13.1% | 1.3 | 0.55 | 0.3 | 2.1 | 0.51 | 73.9% | significantly increase the rate of release |  |  | 
3 | COc1ccccc1O [Guaiacol] | suppressed | significant suppression effect | −3.4% | −48.1% | −19.9% | 0.2% | 28.4 | 18.95 | 39.9 | 36.2 | 36.50 | −40.3% | significantly suppressed release |  |  | 
4 | CC(C)=CCCC(C)=CC=O [Citral, 3,7-dimethyl-2,6-octadienal] | suppressed |  | −70.0% | −69.0% | −45.4% | −58.2% | 6.0 | 5.83 | 13.5 | 24.3 | 18.80 | −124.2% | significantly suppressed release |  | significant suppression effect | still suppressed
5 | CC(=O)O [Acetic acid] | suppressed | significant suppression effect | −0.5% | −27.7% | −1.7% | −9.0% | 16.9 | 9.90 | 15.6 | 13.4 | 13.70 | 8.0% | little effect | P |  | 
6 | CCCCCCCCCC(=O)OCC [Ethyl decanoate] |  |  | −2.0% | 41.9% | 17.8% | −12.4% | 117.0 | 23.9 | 258.0 | 131.3 | 16.84 | −120.5% | little effect |  |  | 
7 | CCCCOC(=O)CCC [Butyl butyrate] |  |  | −3.3% | 29.2% | −20.5% | −8.2% | 27.9 | 13.57 | 49.4 | 46.4 | 10.50 | −77.2% |  | Z |  | 
8 | CCCCCCCC=O [Octanal] |  |  | 2.6% | −10.5% | −21.1% | −2.5% | 42.9 | 10.70 | 56.0 | 67.0 | 11.95 | −30.5% | significantly suppressed release |  |  | 
